In experiment [1] the test system is SMN2 FL and SMN2 Δ7 mRNA. Description: RT-qPCR analysis of SMN2 full length (FL) and Δ7 mRNAs in cultured cells. The class given is cell-based, human. The note with it: FIG. 1. On the procedure: Cells are plated at a certain density in an appropriate medium in 96-well flat-bottom plates. The plate is immediately swirled to ensure even distribution of the cells to ensure the formation of an even monolayer of cells and incubated for 6-24 hrs at 37° C. Cells are then treated with serially diluted test compound (e.g., 3.16-fold dilution factor, 0.5% final concentration of DMSO), in duplicate, for desired time under appropriate conditions (e.g., 37° C., 5% CO2, 100% relative humidity). After supernatant removal, cells are lysed (e.g., in Cells-To-Ct lysis buffer, Life Technologies). The levels of RNA of interest, and a reference RNA (e.g., GAPDH mRNA) are quantified (e.g., by using Taqman-based RT-qPCR) by assays designed to detect each mRNA of interest specifically. The forward and reverse primers are used at the appropriate concentration (e.g., 0.1-1 μM), as well as the probe (e.g., 0.1 to 0.3 μM). GAPDH primers are typically at 0.1 μM and the probe at 0.075 μM. RT-qPCR is carried out using an appropriate protocol. One example of such a protocol is the following temperatures for indicated time: Step 1: 48° C. (15 min); Step 2: 95° C. (10 min); Step 3: 95° C. (15 sec); Step 4: 60° C. (1 min); then, repeat Steps 3 and 4 for a total of 40 cycles. Fluorescence is recorded in each cycle at the end of the Step 4 incubation. […] The Ct values for each mRNA are converted to mRNA abundance using actual PCR efficiencies, and may be calculated essentially as described in Liu and Saint (Anal Biochem 302:52). […]
GM03813 (Coriell Institute) and PNN 1-46 fibroblasts (Columbia University) derived from SMA Type I patients were plated at 5,000 cells/well in 200 μL Dulbecco's modified Eagle's medium (DMEM) with GlutaMAX and 10% fetal bovine serum (FBS) (Life Technologies, Inc.) in 96-well plates, and incubated for 6 hours in a cell culture incubator (37° C., 5% CO2, 100% relative humidity). […] The mRNA levels of SMN2 FL, SMN2 Δ7 and GAPDH were quantified using Taqman-based RT-qPCR and SMN2-specific primers and probes in Table 5 (purchased from Life Technologies, Inc.). […]
On the technique in general: In qPCR the cycle at which signal appears reflects the starting amount.

Experiment [2] deals with splice junctions in human transcripts, PNN 1-46 cells. In words: RNA sequencing, splice-site (splice junction) analysis, Compound vs DMSO control. The class given is cell-based. On the procedure: PNN 1-46 cells derived from a Type I SMA patient were treated with Compound 702 at 500 nM for 24 hours. RNA was purified with the RNeasy Mini Kit (Qiagen) for mRNA sequencing on HiSeq 2500 (Illumina Inc., San Diego, Calif.). The quality of the total RNA was assessed using UV spectrophotometry and agarose gel electrophoresis. Template DNA molecules suitable for cluster generation were prepared from 1 ug of total RNA samples using the TruSeq RNA Sample Preparation Kit v2 (Illumina Inc., San Diego, Calif.) according to the manufacturer's instructions. The size distribution of the libraries was estimated by electrophoresis on Agilent High Sensitivity Bioanalyzer microfluidic chips. The minimum and average sizes of the amplified libraries were determined to be >200 nucleotides and 300-340 nucleotides, respectively. Libraries were quantified using the KAPA Library Quantification Kit (KK4824, Kapa Biosystems, Boston, Mass.). The libraries were pooled at equimolar concentrations and diluted prior to loading onto the flow cell of the HiSeq 2500 (Illumina Inc., San Diego, Calif.) for both clustering and sequencing. The libraries were extended and bridge-amplified to create single sequence clusters using the TruSeq Rapid PE Cluster Kit—HS (Illumina Inc., San Diego, Calif.). Amplified clusters in the flow cell were then sequenced with 50-bp paired-end reads using the TruSeq Rapid SBS Kit—HS (Illumina Inc., San Diego, Calif.) in rapid run mode. Real time image analysis and base calling were performed on the HiSeq 2500 instrument using the HiSeq Sequencing Control Software (HCS). CASAVA software version 1.8 was used for de-multiplexing and production of FASTQ sequence files.
In order to estimate gene expression levels, paired-end RNAseq reads were subsequently mapped to RefSeq human transcripts (release 60) and the human genome (hg19) by using the short read aligner Bowtie2 (Langmead et al., 2012. Nature methods 9:357). The number of mapped reads for all transcript variants of a gene (counts) were combined into a single value and normalized denoted as rpkms (number of mapped reads per kilobase transcript per million sequenced reads, (Mortazavi et al., 2008. Nature methods 5:621)). The splice-site analysis was performed by mapping the paired-end RNASeq reads to RefSeq human transcripts using the alignment software GSNAP with default parameters and the option ‘sam-multiple-primaries’ in order to account for reads that were mapped multiple times to different splice variants. The number of reads spanning splice-sites was determined by applying the samtools mpileup software with default parameters for each transcript. Reads having an alignment start or end exactly on the splice-site were excluded from the analysis (Wu et al., 2005, Bioinformatics 21:1859; Wu et al., 2010, Bioinformatics 26:873; Li et al., 2009, Bioinformatics 25:2078). […]

Where [3] appears, read: SMA Type I patient fibroblasts, treatment for 24 hours.
Setting [4] is: 500 nM vs DMSO control, FIG. 2C.

As to `CCN1CCC(c2cc(C)c3nc(-c4cc5c(C)nc(C)cn5n4)cc(=O)n3c2)CC1` [Compound 702], in experiment [1] (SMA Type I fibroblast cells (PNN 1-46), 500 nM, 24 hours), the “splicing alteration of SMN2 transcripts” value is “complete splicing alteration of all SMN2 transcripts”. In addition, in experiment [1] (setting [3]), the “expression of exon 7 lacking (Δ7) mRNA” value is “dose dependent expression” and the “expression of full length (FL) mRNA” value was “dose dependent expression”. Also, in experiment [2] (setting [4]), the “effect on STRN3 transcript variants” value is “a switch between variants NM_014574 and NM_001083893”; the “genes to which the splice junctions with p>300 belong” value is “SMN2, PDXDC1, STRN3, and pseudogene PDXDC2P”; the “splice junctions with p>300 (p=Δ×Log2 FC)” value was found to be 20 splice junctions; the “splice junctions with p>300 that belong to PDXDC1, all similarly affected” value worked out at 15 splice junctions. For the same molecule, the “splice junctions with p>100 (p=Δ×Log2 FC)” value in experiment [2] (500 nM vs DMSO control, out of about 300,000 splice junctions analyzed, FIG. 2C) is listed as 114 splice junctions. For the same molecule, the “up spl j gene (gene with upregulated splice junctions)” value in experiment [2] (PNN 1-46, 500 nM, 24 hours, splice junctions with p>100, * = pseudogene) was “STRN3 and APLP2 and TEX21P* and RCC1 and FOXM1 and VPS29”.
